According to patent publication US5877210A, “Phosphotyrosine phosphatase inhibitors or phosphotyrosine kinase activators for controlling cellular proliferation” (priority 1995, dated 1999):
“Also recorded” adds a separate entry of the source.

Legend:
[1] = test system: CEM; assay: [3H]thymidine incorporation assay; type: cell-based, human; details: for [3H]cpm incorporation: seven days
Procedure: (§1) For each cell type, the cells were passaged uniformly for all drug doses given during the seven-day period. The cells were then pulsed for six hours with [^3 H]thymidine. The extent of DNA synthesis was then determined by counting the radioactivity incorporated into the cells.
(§2) For assays of cellular proliferation, cells were grown five days in the presence of the indicated concentrations of BMLOV, pulsed 6 hr with [^3 H]-thymidine (New England Nuclear, Boston, Mass.), and counted in a liquid scintillation counter. Human peripheral blood lymphocytes (PBL) from normal volunteers were isolated from lymphocyte separation medium (Litton Bionetics, Kensington, Md.) by density gradient centrifugation. Monocytes were depleted from PBL by two rounds of plastic absorption for 30 minutes at 37° C. B cells were enriched for by negative selection using complement plus monoclonal antibodies to CD2, CD3, CD4, and CD8 for complement depletion. Clonogenic assays of colony formation in methylcellulose medium were performed as previously described (F. M. Uckun et al. (1992), supra).

[2] = test system: HL-60; assay: [3H]thymidine incorporation assay; type: cell-based, human; details: for [3H]cpm incorporation: seven days
Procedure: as §1, §2

SMILES: Cc1occc(=O)c1[O-].Cc1occc(=O)c1[O-].[O]=[V+2] [BMLOV, Bis(maltolato)oxovanadium (IV)]
- [3H]cpm incorporation ([1]; 1 μM BMLOV): 368721 cpm
- [3H]cpm incorporation ([1]; 5 μM BMLOV): 403576 cpm
- [3H]cpm incorporation ([1]; 10 μM BMLOV): 371256 cpm
- [3H]cpm incorporation ([1]; 25 μM BMLOV): 313714 cpm
- sensitivity of proliferation to BMLOV, in words ([1]; 25 μM, 5 or 7 days): resistant; also recorded: only small effects
- [3H]cpm incorporation ([2]; 1 μM BMLOV): 191637 cpm
- [3H]cpm incorporation ([2]; 5 μM BMLOV): 276505 cpm
- [3H]cpm incorporation ([2]; 10 μM BMLOV): 222178 cpm
- [3H]cpm incorporation ([2]; 25 μM BMLOV): 11398 cpm
- sensitivity of proliferation to BMLOV, in words ([2]; 25 μM, 5 or 7 days): moderately sensitive; also recorded: showed an inhibition of growth
